Measurements as given in ChEMBL document CHEMBL5537167, “Rising Star in Immunotherapy: Development and Therapeutic Potential of Small-Molecule Inhibitors Targeting Casitas B Cell Lymphoma-b (Cbl-b)” (J Med Chem, 2024).
One block for each compound: values may come before it.

Key:
[1] = molecular target: T1, E3 ubiquitin-protein ligase CBL-B (Homo sapiens, UniProt Q13191)
Description: Inhibition of N-terminal biotinylated Avi-tagged Cbl-b (36 to 427 residues) (unknown origin) by SPR assay

in vitro = settings: rat, plasma
[2] = Metabolic stability in human liver microsomes assessed as intrinsic clearance
[3] = molecular target: T1, E3 ubiquitin-protein ligase CBL-B; assay: Inhibition of Cbl-b (unknown origin) by Cellular substrate assay
[4] = Metabolic stability in mouse liver microsomes assessed as intrinsic clearance
[5] = molecular target: T1, E3 ubiquitin-protein ligase CBL-B; assay: Inhibition of Cbl-b (unknown origin) by TR-FRET assay
[6] = molecular target: T1, E3 ubiquitin-protein ligase CBL-B; assay: Inhibition of CBL-B (unknown origin) by FRET assay
[7] = system: Panel NCI-60 (60 carcinoma cell lines); assay: Anti-proliferative activity against human Panel NCI-60 (60 carcinoma cell lines)
[8] = molecular target: T1, E3 ubiquitin-protein ligase CBL-B; assay: Inhibition of CBL-B (unknown origin) by biochemical assay
[9] = molecular target: T1, E3 ubiquitin-protein ligase CBL-B; assay: Inhibition of Cbl-b (unknown origin) using fluorophore-labeled probe by TR-FRET based Cb1-b displacement assay

T1 sequence (Q13191 whole entry): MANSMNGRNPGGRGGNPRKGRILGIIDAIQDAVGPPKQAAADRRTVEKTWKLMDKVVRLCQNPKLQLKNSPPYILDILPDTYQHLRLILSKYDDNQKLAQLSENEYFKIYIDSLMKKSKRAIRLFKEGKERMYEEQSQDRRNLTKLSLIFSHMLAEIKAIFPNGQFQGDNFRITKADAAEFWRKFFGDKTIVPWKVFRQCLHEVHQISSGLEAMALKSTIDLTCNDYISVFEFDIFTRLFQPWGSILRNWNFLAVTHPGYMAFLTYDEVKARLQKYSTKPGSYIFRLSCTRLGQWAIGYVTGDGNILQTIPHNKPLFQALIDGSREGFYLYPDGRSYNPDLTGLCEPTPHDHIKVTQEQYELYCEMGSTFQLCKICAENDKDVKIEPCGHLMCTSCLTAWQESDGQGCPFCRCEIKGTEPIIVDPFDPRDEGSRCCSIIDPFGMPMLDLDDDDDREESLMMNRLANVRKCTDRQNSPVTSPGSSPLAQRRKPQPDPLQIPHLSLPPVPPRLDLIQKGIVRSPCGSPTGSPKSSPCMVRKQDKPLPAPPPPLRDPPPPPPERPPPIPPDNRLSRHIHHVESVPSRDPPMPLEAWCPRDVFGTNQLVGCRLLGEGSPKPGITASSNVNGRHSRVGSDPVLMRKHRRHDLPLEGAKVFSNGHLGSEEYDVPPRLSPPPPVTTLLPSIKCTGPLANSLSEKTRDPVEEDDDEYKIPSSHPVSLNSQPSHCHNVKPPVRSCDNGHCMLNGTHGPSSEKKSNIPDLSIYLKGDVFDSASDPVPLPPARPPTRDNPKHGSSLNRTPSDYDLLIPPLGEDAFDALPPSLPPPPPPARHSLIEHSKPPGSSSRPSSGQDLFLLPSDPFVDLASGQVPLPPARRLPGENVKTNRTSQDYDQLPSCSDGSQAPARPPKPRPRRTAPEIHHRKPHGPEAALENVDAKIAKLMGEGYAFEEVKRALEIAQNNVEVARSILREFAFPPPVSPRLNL

IC50 [1]: 1 nM
SMILES: Cn1cnnc1CC1(c2cccc(N3Cc4c(cc(CN5CCCC(CC#N)C5)cc4C(F)(F)F)C3=O)c2)COC1 (stereo unspecified)

half-life (in vitro): > 16.7 h
CLint scaled [2]: 7 mL/min/kg
IC50 [3]: 790 nM
CLint scaled [4]: 26 mL/min/kg
SMILES: Cc1cc(C(=O)Nc2cccc(C3(Cc4nncn4C)COC3)c2)nc(C2CC2)n1

IC50 [1]: ≤ 5 nM
SMILES: C[C@@H]1CN(Cc2cc3c(c(C(F)(F)F)c2)CN(c2cccc(C4(c5nncn5C)CC(F)(F)C4)c2)C3=O)CCO1

IC50 [5]: < 100000 nM
SMILES: Cn1cnnc1CC1(c2cccc(-n3cc4c(C(F)(F)F)cc(CN5CCC6(CC6)C5)cn4c3=O)c2)COC1

half-life (in vitro): 2.72 h
IC50 [6]: 38 nM
IC50 [3]: 780 nM
CLint scaled [4]: 67 mL/min/kg
SMILES: Cc1cc(C(=O)Nc2cccc([C@H](C)Cc3nncn3C)c2)nc(C2CC2)n1

IC50 [8]: 167000 nM
SMILES: CN(C)c1c2c(c3nc4ccccc4c4c3c1N=C4)NCCC2=O
GI50 [7]: 180 nM

IC50 [9]: < 100 nM
SMILES: C[C@H](Cc1nncn1C)c1cccc(NC(=O)N2CCOc3cccnc32)c1

IC50 [6]: 92 nM
SMILES: C[C@H](Sc1nncn1C)c1cccc(NC(=O)c2ccnc(C3CC3)n2)c1

IC50 [8]: 9700 nM
SMILES: CN(C)c1c2c(c3nc4ccccc4c4c3c1N=C4N1C(=O)c3c4c(nc5ccccc35)C3=C(C(=O)CCN3)C(=[N+](C)C)C41)NCCC2=O (stereo in doubt; (+)-8)
GI50 [7]: > 30000 nM

IC50 [5]: < 100000 nM
SMILES: Cn1cnnc1[C@H](c1cccc(-n2cc3c(C(F)(F)F)cc(CN4CCC[C@@](C)(O)C4)cn3c2=O)c1)C1CCC1

IC50 [1]: < 100 nM
SMILES: Cc1cc(C(=O)Nc2cccc(C3(Cc4nocc4C)COC3)c2)nc(C2CC2)n1

IC50 [1]: < 1 nM
SMILES: C[C@H]1CCCN(Cc2cc3c(c(C(F)(F)F)c2)CN(c2cccc([C@]4(Cc5nncn5C)C[C@@H](C#N)C4)c2)C3=O)C1

IC50 [6]: ≤ 5 nM
SMILES: C[C@H]1CCCN(Cc2cc3c(c(C(F)(F)F)c2)CN(c2cccc([C@]4(c5nncn5C)C[C@@H](C)C4)c2)C3=O)C1

IC50 [6]: 88 nM
CLint scaled [2]: 30 mL/min/kg
IC50 [3]: 1700 nM
CLint scaled [4]: 73 mL/min/kg
SMILES: C[C@H](Cc1nncn1C)c1cccc(NC(=O)c2ccnc(C3CC3)n2)c1

IC50 [8]: 7500 nM
SMILES: CN(C)c1c2c(c3nc4ccccc4c4c3c1N=C4N1C(=O)c3c4c(nc5ccccc35)C3=C(C(=O)CCN3)C(=[N+](C)C)C41)NCCC2=O (stereo in doubt; (-)-8)
